In patent US20250090437A1, “COSMETIC COMPOUNDING AGENT, COSMETIC AND PRODUCTION METHOD THEREOF” (MIYOSHI OIL & FAT CO., LTD., priority 2019, published 2025):

Experiments:
[1] = Water confinement property test (barrier property); type: physicochemical; conditions: 80 wt % aqueous solution, 0.01 mL/cm^2 on filter paper, 40° C. and 25% RH, 24 hours
[2] = Water retention property test 1; type: physicochemical; conditions: 80 wt % aqueous solution
Description: A moisture rate after 24 hours was again measured (post-test moisture rate: B), followed by using the formula below to calculate a rate of reduction in moisture so as to evaluate the water retention property. • Pre-test moisture rate: A (%) • Post-test moisture rate: B (%)

[3] = Affinity to hair (contact angle); conditions: 50 wt % aqueous solution; condition B (hair iron, 160° C.)
[4] = Sensory evaluation on healthy hair after using conditioner containing organic ammonium salt; parameters: species or system human; conditions: conditioner containing 3.0% by mass of the compound
Description: Here, 4.5% by mass of a stearyl alcohol (KALCOL 8688 by Kao Corporation), 2.0% by mass of a behenyl alcohol (KALCOL 220-80 by Kao Corporation) and 0.5% by mass of a phenoxyethanol (Hisolve EPH by TOHO Chemical Industry Co., Ltd.) were mixed together and heated to 75° C. to obtain a liquid A. Further, 3.0% by mass of a behentrimonium chloride (CATINAL DC-80 by TOHO Chemical Industry Co., Ltd.), 5.0% by mass of dipropylene glycol and 3.0% by mass of each of the compounds B11, B23, B26, B27 and B28 (content in terms of anhydride in the cases of the compounds B11 and B23) were added together, followed by adding a purified water thereto, and then melting them at 80° C., thus obtaining a liquid B. The liquid B was then gradually added to the liquid A, and stirring was performed at 75° C. for 20 min. Next, the mixture was cooled to a temperature of 40° C. or lower, and a purified water of an evaporated amount was then added thereto so that the whole hair treatment composition would be 100% by mass, followed by uniformly mixing them so as to obtain a hair treatment composition(s).
About 5 g of the healthy hair was dipped into and kept immersed in 150 g of a seven-time dilute aqueous solution of each of the abovementioned hair treatment compositions (conditioners) at 40° C. for 30 min. […] After air drying, a combing capability, cohesiveness and non-stickiness of the hair were evaluated.

[5] = Sensory evaluation on healthy hair after using organic ammonium salt; parameters: species or system human; conditions: healthy hair, 80 wt % aqueous solution
Description: Here, an 80 wt % aqueous solution(s) of each of the compounds B11, B12, B23, B26 and B27 (content in terms of anhydride in the cases of the compounds B11, B12 and B23) were prepared and used as samples. Next, one minute was spent in evenly applying 10.0 g of each sample to a bundle of the healthy hairs weighing about 10 g, using a brush; the bundle of the healthy hairs was then left for 5 min. After leaving it for 5 min, the bundle of the healthy hairs was rinsed with a hot water of 40° C. for 30 sec, and evaluated was a finger-combing capability at the time of performing washing. The hair bundle that had been rinsed was then dried with a towel and further subjected to air drying for a day, followed by evaluating items such as flexibility, finger-combing capability, texture, elasticity/resilience (feeling by bare hands), volume increase (visual evaluation), cohesiveness, moist feeling, surface smoothness, non-stickiness (feeling by bare hands) and gloss (visual evaluation), from the perspective of superiority or inferiority to a test hair bundle(s) uncoated with the sample.

[6] = Water retention property and adherability with respect to healthy hair; parameters: species or system human
[7] = unsealed, 24 hours at 40° C. and 25% RH

- Water evaporation inhibition rate [1]: 16.2%
- Pre-test moisture rate ([2]; before the test (Karl Fischer)): 20.0%
- Post-test moisture rate [2, 7]: 18.0%
- Rate of reduction in moisture [2, 7]: 10.0%
Structure (SMILES): OCC(O)CO [Compound A52, glycerin, reference compound]
- Contact angle of water droplet on treated hair [3]: not indifferent from that of the untreated product
- Combing capability, cohesiveness and non-stickiness of healthy hair after conditioner [4]: slightly inferior
- After air drying: Cohesiveness of hair [5]: Δ~X
- After air drying: Elasticity/Resilience [5]: Δ~X
- After air drying: Finger-combing capability [5]: Δ~X
- After air drying: Flexibility [5]: Δ~X
- After air drying: Gloss of hair [5]: Δ~X
- After air drying: Moist feeling [5]: Δ~X
- After air drying: Non-stickiness of hair surface [5]: Δ~X
- After air drying: Smoothness of hair surface [5]: Δ~X
- After air drying: Texture [5]: Δ~X
- After air drying: Volume increase [5]: Δ~X
- When washing: Finger-combing capability ([5]; versus uncoated hair bundle): ◯
- Post-test moisture rate ([6]; healthy hair immersed 60 min in 80 wt % aqueous solution, after 24 hours at 40° C., 35 to 40% RH, pre-test 7.6%): 5.3%
- Compound adhesion rate ([6]; healthy hair immersed 60 min in 80 wt % aqueous solution, listed as B26): 1.0%
- Rate of reduction in moisture ([6]; healthy hair, 80 wt % aqueous solution, 24 hours at 40° C., 35 to 40% RH): 30%
